From publication PMC8371461 (Frontiers in Pharmacology, 2021)
Like-named read-outs stand apart in the source and are kept apart here.

Legend:
Assay in all cases: Kd select analysis (DiscoverX)
Type in all cases: binding
[1] = biological target: T1, PIP4K2C (Homo sapiens, UniProt Q8TBX8)
T1 construct: T7 phage fusion (kinase-tagged phage); purchased DiscoverX; host or cells: BL21-derived E. coli (T7 phage)
Protocol: (§1) Hits are identified by an ultra-sensitive quantitative PCR detecting the specific DNA tag linked to each kinase (Supplementary Figure S2). The drug is used at a concentration of 10 µM and results are expressed as the percentage of signal (kinase PCR detection) with respect to DMSO control conditions. Thirteen hits were identified, with a signal reduction ranging from 0 to 27% (Table 3). Full raw data are presented in Supplementary Table S4. Interactions between 0 and 20% of reduction were considered to be the most significant ones. […] A sub-micromolar affinity (Kd<1 µM) was only seen with two PIKs (PIP4K2C, PI4KB) and GAK (Table 4). Inhibitions curves from these compounds are shown in Supplementary Figure S3.

[2] = biological target: T2, DYRK2 (Homo sapiens, UniProt Q92630)
T2 construct: purchased DiscoverX (KINOMEscan)
T2 sequence (Q92630 1-601): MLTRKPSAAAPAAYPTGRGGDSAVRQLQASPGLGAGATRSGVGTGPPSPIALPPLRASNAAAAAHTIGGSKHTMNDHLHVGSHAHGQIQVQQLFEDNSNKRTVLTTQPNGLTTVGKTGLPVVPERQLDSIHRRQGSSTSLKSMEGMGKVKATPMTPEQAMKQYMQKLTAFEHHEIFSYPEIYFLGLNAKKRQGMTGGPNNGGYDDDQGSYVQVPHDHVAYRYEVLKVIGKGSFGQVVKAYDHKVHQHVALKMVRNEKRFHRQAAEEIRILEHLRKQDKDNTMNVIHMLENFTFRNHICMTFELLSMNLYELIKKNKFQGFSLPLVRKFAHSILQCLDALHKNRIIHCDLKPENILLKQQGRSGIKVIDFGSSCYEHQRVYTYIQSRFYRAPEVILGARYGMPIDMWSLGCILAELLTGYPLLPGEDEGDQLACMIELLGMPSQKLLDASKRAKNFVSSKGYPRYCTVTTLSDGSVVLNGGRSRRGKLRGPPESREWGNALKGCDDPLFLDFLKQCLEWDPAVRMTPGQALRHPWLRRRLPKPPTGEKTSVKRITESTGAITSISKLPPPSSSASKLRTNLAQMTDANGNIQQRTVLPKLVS
Protocol: as §1

[3] = biological target: T3, RIOK2 (Homo sapiens, UniProt Q9BVS4)
T3 construct: T7 phage fusion (kinase-tagged phage); purchased DiscoverX; host or cells: BL21-derived E. coli (T7 phage)
T3 sequence (Q9BVS4 whole entry, the tested form may be a part): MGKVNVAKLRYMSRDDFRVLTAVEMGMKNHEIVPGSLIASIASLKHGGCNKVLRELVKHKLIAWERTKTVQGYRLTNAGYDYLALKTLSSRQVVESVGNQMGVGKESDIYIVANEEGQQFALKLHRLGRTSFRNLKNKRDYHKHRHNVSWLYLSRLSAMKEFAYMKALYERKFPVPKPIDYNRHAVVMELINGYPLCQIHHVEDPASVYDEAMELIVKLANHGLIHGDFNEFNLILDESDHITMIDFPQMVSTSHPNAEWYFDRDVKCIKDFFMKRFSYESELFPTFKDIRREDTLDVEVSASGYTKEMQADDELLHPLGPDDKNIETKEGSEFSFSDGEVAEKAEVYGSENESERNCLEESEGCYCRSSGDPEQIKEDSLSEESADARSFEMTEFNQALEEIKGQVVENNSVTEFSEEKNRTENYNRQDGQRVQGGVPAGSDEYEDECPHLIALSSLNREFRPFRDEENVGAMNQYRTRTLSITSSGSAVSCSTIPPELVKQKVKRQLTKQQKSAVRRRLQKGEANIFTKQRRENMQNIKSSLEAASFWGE
Protocol: as §1

[4] = biological target: T4, GAK (Homo sapiens, UniProt O14976)
T4 construct: T7 phage fusion (kinase-tagged phage); purchased DiscoverX; host or cells: BL21-derived E. coli (T7 phage)
T4 sequence (O14976 1-1311): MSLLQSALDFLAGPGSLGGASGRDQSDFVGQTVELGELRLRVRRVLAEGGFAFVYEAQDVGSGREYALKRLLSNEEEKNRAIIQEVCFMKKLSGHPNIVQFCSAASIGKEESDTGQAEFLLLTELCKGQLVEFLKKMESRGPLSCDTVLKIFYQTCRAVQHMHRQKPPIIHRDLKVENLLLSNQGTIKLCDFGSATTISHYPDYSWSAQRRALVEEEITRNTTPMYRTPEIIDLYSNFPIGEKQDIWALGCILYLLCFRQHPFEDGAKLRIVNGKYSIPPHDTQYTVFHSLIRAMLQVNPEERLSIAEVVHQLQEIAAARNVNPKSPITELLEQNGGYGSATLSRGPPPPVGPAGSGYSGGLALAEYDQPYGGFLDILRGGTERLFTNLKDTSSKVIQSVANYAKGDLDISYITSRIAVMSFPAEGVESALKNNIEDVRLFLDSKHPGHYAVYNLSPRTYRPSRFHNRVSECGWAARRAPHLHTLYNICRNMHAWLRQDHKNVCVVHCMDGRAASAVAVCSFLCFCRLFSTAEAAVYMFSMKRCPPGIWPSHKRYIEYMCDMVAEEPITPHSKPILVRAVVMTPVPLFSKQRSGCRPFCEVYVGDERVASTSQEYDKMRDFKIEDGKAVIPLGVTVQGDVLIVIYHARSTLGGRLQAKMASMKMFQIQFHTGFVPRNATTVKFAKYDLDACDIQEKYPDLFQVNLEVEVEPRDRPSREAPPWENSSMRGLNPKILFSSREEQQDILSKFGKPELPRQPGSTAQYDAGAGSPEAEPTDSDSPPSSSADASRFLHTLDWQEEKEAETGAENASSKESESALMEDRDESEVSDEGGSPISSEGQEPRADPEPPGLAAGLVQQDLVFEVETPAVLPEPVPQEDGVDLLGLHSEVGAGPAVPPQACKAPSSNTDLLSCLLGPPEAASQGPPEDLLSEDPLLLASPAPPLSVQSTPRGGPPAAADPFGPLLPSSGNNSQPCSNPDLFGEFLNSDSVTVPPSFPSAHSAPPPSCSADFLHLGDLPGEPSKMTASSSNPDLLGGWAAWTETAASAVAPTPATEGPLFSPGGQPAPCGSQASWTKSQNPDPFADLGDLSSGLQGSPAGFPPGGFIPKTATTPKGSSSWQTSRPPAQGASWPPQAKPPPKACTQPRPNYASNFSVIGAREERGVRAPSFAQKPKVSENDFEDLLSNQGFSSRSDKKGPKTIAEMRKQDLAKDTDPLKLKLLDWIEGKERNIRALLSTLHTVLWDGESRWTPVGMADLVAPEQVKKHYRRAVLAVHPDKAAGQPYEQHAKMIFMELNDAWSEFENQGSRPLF
Protocol: as §1

[5] = sub-micromolar affinity, read-out: Kd

T1 sequence (Q8TBX8 whole entry, the tested form may be a part): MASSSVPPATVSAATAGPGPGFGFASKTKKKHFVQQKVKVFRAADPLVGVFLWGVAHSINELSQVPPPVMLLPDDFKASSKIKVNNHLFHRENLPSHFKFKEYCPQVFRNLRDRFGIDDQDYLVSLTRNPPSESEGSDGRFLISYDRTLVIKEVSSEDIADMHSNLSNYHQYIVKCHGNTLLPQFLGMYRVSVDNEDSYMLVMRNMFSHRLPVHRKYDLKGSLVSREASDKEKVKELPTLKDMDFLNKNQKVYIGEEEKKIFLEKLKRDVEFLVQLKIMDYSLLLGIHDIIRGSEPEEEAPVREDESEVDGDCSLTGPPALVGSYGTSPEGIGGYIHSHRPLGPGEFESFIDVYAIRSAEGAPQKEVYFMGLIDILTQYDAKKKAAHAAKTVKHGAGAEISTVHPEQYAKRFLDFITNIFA

Nc1ccc(N=Nc2ccccc2)c(N)n1 [phenazopyridine, 2,6-diamino-3-(phenylazo)pyridine]
Kd ([1]; Phenazopyridine Kd (nM)): 540 nM | Kd [1, 5]: < 1000 nM | Kd [2]: 5 µM | Kd [3]: 1 µM | Kd ([4]; Phenazopyridine Kd (nM)): 760 nM | Kd [4, 5]: < 1000 nM
